Experimental data taken from US6692880B2, “Electrophotographic toner with stable triboelectric properties” (Heidelberger Druckmaschinen AG, priority 2001, dated 2004).

Tests used:
[1] = obtained or extrapolated from tables in Morrison and Boyd; cited from earlier work
[2] = Charge per mass of developers after exercise periods, MECCA device; assay type: physicochemical; details: clear polyester toner; for Fresh Developer 10 min exercise (charge values) / Fresh developer 2 min shake (charge values) / Rebuilt developer 2 min shake (charge values) / Rebuilt developer 10 min exercise (charge values): Binder C resin
[3] = pKa values measured by titrimetry; assay type: physicochemical; details: (a) values measured by titrimetry; read-out: pKa 1
From the text: Any acidic material having a pKa in the range of from about 2 to about 8 can be used as the first charge control agent. Acidic materials with pKa values of from 3 to 7 are particularly preferred. Acidic materials preferably contain a labile proton, such as a carboxylic, phenolic or sulfonic acid. More broadly an acid also includes compounds within the definition as proposed by G. N. Lewis, that is an acid is any material capable of accepting an electron pair from a donor molecule. The term pKa is defined as
where Ka is an inherent molecular property of an acidic compound and is called the acid dissociation constant. Ka is defined by the following equation; [formula]
In a practical sense the lower the pKa value the stronger the acid. Acids useful in this invention may have more than one acid function per molecule such as di- and tri-carboxylic or di- and tri-sulfonic acids. Further, multiple types of acid functional groups may be present in the useful molecule for example as in p-carboxybenzenesulfonic acid. One skilled in the art can readily propose other such acids based on the foregoing definitions.

[4] = 0.2 pph added acid, 2 pph Bontron E-84
[5] = 1 pph added acid, 2 pph Bontron E-84
[6] = 5 pph added acid, 2 pph Bontron E-84
[7] = 0.2 pph added acid, LLT-101 resin, 2 pph Bontron E-84
[8] = 1 pph added acid, LLT-101 resin, 2 pph Bontron E-84
[9] = 5 pph added acid, LLT-101 resin, 2 pph Bontron E-84
[10] = 0.2 pph adipic acid added, 0 pph Bontron E-84, Binder C
[11] = 0.2 pph adipic acid added, 2 pph Bontron E-84, Binder C
[12] = 1 pph adipic acid added, 0 pph Bontron E-84, Binder C
[13] = 1 pph adipic acid added, 2 pph Bontron E-84, Binder C
[14] = 5 pph adipic acid added, 0 pph Bontron E-84, Binder C
[15] = 5 pph adipic acid added, 2 pph Bontron E-84, Binder C

CC(C)(C)c1cc(C(=O)O)cc(C(C)(C)C)c1 [3,5-di-t-butylbenzoic, 3,5-di-t-butylbenzoic acid]
pKa 1 [1]: 4.6

O=C(O)c1ccccc1O [Salicylic acid]
Fresh Developer 10 min exercise (charge values) [2, 4]: −65.5 μC/g
Fresh developer 2 min shake (charge values) [2, 4]: −22.7 μC/g
Rebuilt developer 2 min shake (charge values) [2, 4]: −46.5 μC/g
Rebuilt developer 10 min exercise (charge values) [2, 4]: −62.0 μC/g
Fresh Developer 10 min exercise (charge values) [2, 5]: −50.5 μC/g
Fresh developer 2 min shake (charge values) [2, 5]: −21.0 μC/g
Rebuilt developer 2 min shake (charge values) [2, 5]: −25.5 μC/g
Rebuilt developer 10 min exercise (charge values) [2, 5]: −46.5 μC/g
Fresh Developer 10 min exercise (charge values) [2, 6]: −41.1 μC/g
Fresh developer 2 min shake (charge values) [2, 6]: −17.4 μC/g
Rebuilt developer 2 min shake (charge values) [2, 6]: −17.0 μC/g
Rebuilt developer 10 min exercise (charge values) [2, 6]: −42.8 μC/g

CC1=NN(c2ccccc2)C(=O)C1 [MPP, 2,4-dihydro-5-methyl-2-phenyl-3H-pyrazol-3-one]
pKa [3]: 6.6

CCOC(=O)/C=C/C(=O)O [fumaric acid monoethyl ester]
pKa [3]: 3.5

Nc1ccc(C(=O)O)cc1 [4-aminobenzoic acid]
Fresh Developer 10 min exercise (charge values) [2, 4]: −78.1 μC/g
Fresh developer 2 min shake (charge values) [2, 4]: −35.3 μC/g
Rebuilt developer 2 min shake (charge values) [2, 4]: −63.2 μC/g
Rebuilt developer 10 min exercise (charge values) [2, 4]: −72.1 μC/g
Fresh Developer 10 min exercise (charge values) [2, 5]: −84.8 μC/g
Fresh developer 2 min shake (charge values) [2, 5]: −40.0 μC/g
Rebuilt developer 2 min shake (charge values) [2, 5]: −56.8 μC/g
Rebuilt developer 10 min exercise (charge values) [2, 5]: −67.7 μC/g
Fresh Developer 10 min exercise (charge values) [2, 6]: −71.6 μC/g
Fresh developer 2 min shake (charge values) [2, 6]: −36.9 μC/g
Rebuilt developer 2 min shake (charge values) [2, 6]: −42.6 μC/g
Rebuilt developer 10 min exercise (charge values) [2, 6]: −60.5 μC/g

CCCCCCCCCCCC(=O)O [Lauric acid]
Fresh Developer 10 min exercise (charge values) [2, 4]: −88.1 μC/g
Fresh developer 2 min shake (charge values) [2, 4]: −44.3 μC/g
Rebuilt developer 2 min shake (charge values) [2, 4]: −60.1 μC/g
Rebuilt developer 10 min exercise (charge values) [2, 4]: −77.5 μC/g
Fresh Developer 10 min exercise (charge per mass) [2, 7]: −96.0 μC/g
Fresh developer 2 min shake (charge per mass) [2, 7]: −40.9 μC/g
Rebuilt developer 2 min shake (charge per mass) [2, 7]: −83.5 μC/g
Rebuilt developer 10 min exercise (charge per mass) [2, 7]: −110.1 μC/g
Fresh Developer 10 min exercise (charge values) [2, 5]: −104.5 μC/g
Fresh developer 2 min shake (charge values) [2, 5]: −43.7 μC/g
Rebuilt developer 2 min shake (charge values) [2, 5]: −69.6 μC/g
Rebuilt developer 10 min exercise (charge values) [2, 5]: −90.8 μC/g
Fresh Developer 10 min exercise (charge per mass) [2, 8]: −125.5 μC/g
Fresh developer 2 min shake (charge per mass) [2, 8]: −52.5 μC/g
Rebuilt developer 2 min shake (charge per mass) [2, 8]: −114.0 μC/g
Rebuilt developer 10 min exercise (charge per mass) [2, 8]: −123.0 μC/g
Fresh Developer 10 min exercise (charge values) [2, 6]: bicharged
Fresh developer 2 min shake (charge values) [2, 6]: −14.7 μC/g
Rebuilt developer 2 min shake (charge values) [2, 6]: −35.0 μC/g
Rebuilt developer 10 min exercise (charge values) [2, 6]: bicharged
Fresh Developer 10 min exercise (charge per mass) [2, 9]: bicharged
Fresh developer 2 min shake (charge per mass) [2, 9]: −8.7 μC/g
Rebuilt developer 2 min shake (charge per mass) [2, 9]: −12.1 μC/g
Rebuilt developer 10 min exercise (charge per mass) [2, 9]: −6.2 μC/g

O=C(O)c1ccc(C(=O)O)cc1 [Terephthalic acid]
Fresh Developer 10 min exercise (charge values) [2, 4]: −58.9 μC/g
Fresh developer 2 min shake (charge values) [2, 4]: −25.5 μC/g
Rebuilt developer 2 min shake (charge values) [2, 4]: −45.3 μC/g
Rebuilt developer 10 min exercise (charge values) [2, 4]: −49.8 μC/g
Fresh Developer 10 min exercise (charge per mass) [2, 7]: −37.2 μC/g
Fresh developer 2 min shake (charge per mass) [2, 7]: −30.3 μC/g
Rebuilt developer 2 min shake (charge per mass) [2, 7]: −43.9 μC/g
Rebuilt developer 10 min exercise (charge per mass) [2, 7]: −35.6 μC/g
Fresh Developer 10 min exercise (charge values) [2, 5]: −46.9 μC/g
Fresh developer 2 min shake (charge values) [2, 5]: −24.4 μC/g
Rebuilt developer 2 min shake (charge values) [2, 5]: −34.4 μC/g
Rebuilt developer 10 min exercise (charge values) [2, 5]: −37.9 μC/g
Fresh Developer 10 min exercise (charge per mass) [2, 8]: −19.7 μC/g
Fresh developer 2 min shake (charge per mass) [2, 8]: −34.9 μC/g
Rebuilt developer 2 min shake (charge per mass) [2, 8]: −15.2 μC/g
Rebuilt developer 10 min exercise (charge per mass) [2, 8]: −12.9 μC/g
Fresh Developer 10 min exercise (charge values) [2, 6]: −13.8 μC/g
Fresh developer 2 min shake (charge values) [2, 6]: −28.3 μC/g
Rebuilt developer 2 min shake (charge values) [2, 6]: −16.5 μC/g
Rebuilt developer 10 min exercise (charge values) [2, 6]: −13.3 μC/g
Fresh Developer 10 min exercise (charge per mass) [2, 9]: −10.0 μC/g
Fresh developer 2 min shake (charge per mass) [2, 9]: −32.8 μC/g
Rebuilt developer 2 min shake (charge per mass) [2, 9]: −18.2 μC/g
Rebuilt developer 10 min exercise (charge per mass) [2, 9]: −5.8 μC/g

C=C(CC(=O)O)C(=O)O [Itaconic acid]
Fresh Developer 10 min exercise (charge values) [2, 4]: −63.1 μC/g
Fresh developer 2 min shake (charge values) [2, 4]: −20.6 μC/g
Rebuilt developer 2 min shake (charge values) [2, 4]: −41.3 μC/g
Rebuilt developer 10 min exercise (charge values) [2, 4]: −49.7 μC/g
Fresh Developer 10 min exercise (charge values) [2, 5]: −33.7 μC/g
Fresh developer 2 min shake (charge values) [2, 5]: −13.6 μC/g
Rebuilt developer 2 min shake (charge values) [2, 5]: −10.2 μC/g
Rebuilt developer 10 min exercise (charge values) [2, 5]: −22.6 μC/g
Fresh Developer 10 min exercise (charge values) [2, 6]: −24.1 μC/g
Fresh developer 2 min shake (charge values) [2, 6]: −11.9 μC/g
Rebuilt developer 2 min shake (charge values) [2, 6]: −6.4 μC/g
Rebuilt developer 10 min exercise (charge values) [2, 6]: −18.7 μC/g

O=C(O)c1ccccc1C(=O)O [phthalic]
pKa 1 [1]: 3.0
pKa 2 [1]: 5.4

O=C(O)CCCCC(=O)O [Adipic acid]
Fresh Developer 10 min exercise (charge per mass) [2, 7]: −63.2 μC/g
Fresh developer 2 min shake (charge per mass) [2, 7]: −25.9 μC/g
Rebuilt developer 2 min shake (charge per mass) [2, 7]: −56.9 μC/g
Rebuilt developer 10 min exercise (charge per mass) [2, 7]: −57.7 μC/g
Fresh Developer 10 min exercise (charge per mass) [2, 10]: −30.1 μC/g
Fresh developer 2 min shake (charge per mass) [2, 10]: −10.0 μC/g
Rebuilt developer 2 min shake (charge per mass) [2, 10]: −7.1 μC/g
Rebuilt developer 10 min exercise (charge per mass) [2, 10]: −17.3 μC/g
Fresh Developer 10 min exercise (charge per mass) [2, 11]: −64.2 μC/g
Fresh developer 2 min shake (charge per mass) [2, 11]: −29.6 μC/g
Rebuilt developer 2 min shake (charge per mass) [2, 11]: −39.4 μC/g
Rebuilt developer 10 min exercise (charge per mass) [2, 11]: −49.6 μC/g
Fresh Developer 10 min exercise (charge per mass) [2, 8]: −40.9 μC/g
Fresh developer 2 min shake (charge per mass) [2, 8]: −23.7 μC/g
Rebuilt developer 2 min shake (charge per mass) [2, 8]: −27.1 μC/g
Rebuilt developer 10 min exercise (charge per mass) [2, 8]: −28.8 μC/g
Fresh Developer 10 min exercise (charge per mass) [2, 12]: −27.6 μC/g
Fresh developer 2 min shake (charge per mass) [2, 12]: −10.1 μC/g
Rebuilt developer 2 min shake (charge per mass) [2, 12]: −4.6 μC/g
Rebuilt developer 10 min exercise (charge per mass) [2, 12]: −12.5 μC/g
Fresh Developer 10 min exercise (charge per mass) [2, 13]: −41.8 μC/g
Fresh developer 2 min shake (charge per mass) [2, 13]: −30.4 μC/g
Rebuilt developer 2 min shake (charge per mass) [2, 13]: −17.1 μC/g
Rebuilt developer 10 min exercise (charge per mass) [2, 13]: −32.3 μC/g
Fresh Developer 10 min exercise (charge per mass) [2, 9]: −25.8 μC/g
Fresh developer 2 min shake (charge per mass) [2, 9]: −18.6 μC/g
Rebuilt developer 2 min shake (charge per mass) [2, 9]: −17.9 μC/g
Rebuilt developer 10 min exercise (charge per mass) [2, 9]: −24.5 μC/g
Fresh Developer 10 min exercise (charge per mass) [2, 14]: −28.4 μC/g
Fresh developer 2 min shake (charge per mass) [2, 14]: −10.4 μC/g
Rebuilt developer 2 min shake (charge per mass) [2, 14]: −5.3 μC/g
Rebuilt developer 10 min exercise (charge per mass) [2, 14]: −11.6 μC/g
Fresh Developer 10 min exercise (charge per mass) [2, 15]: −35.7 μC/g
Fresh developer 2 min shake (charge per mass) [2, 15]: −18.5 μC/g
Rebuilt developer 2 min shake (charge per mass) [2, 15]: −11.2 μC/g
Rebuilt developer 10 min exercise (charge per mass) [2, 15]: −29.2 μC/g
pKa 1 [1]: 4.5

O=C(O)CCCC(=O)O [Glutaric acid]
Fresh Developer 10 min exercise (charge values) [2, 4]: −66.2 μC/g
Fresh developer 2 min shake (charge values) [2, 4]: −26.5 μC/g
Rebuilt developer 2 min shake (charge values) [2, 4]: −45.7 μC/g
Rebuilt developer 10 min exercise (charge values) [2, 4]: −58.1 μC/g
Fresh Developer 10 min exercise (charge values) [2, 5]: −42.5 μC/g
Fresh developer 2 min shake (charge values) [2, 5]: −16.6 μC/g
Rebuilt developer 2 min shake (charge values) [2, 5]: −15.6 μC/g
Rebuilt developer 10 min exercise (charge values) [2, 5]: −30.1 μC/g
Fresh Developer 10 min exercise (charge values) [2, 6]: −11.8 μC/g
Fresh developer 2 min shake (charge values) [2, 6]: −6.2 μC/g
Rebuilt developer 2 min shake (charge values) [2, 6]: −4.5 μC/g
Rebuilt developer 10 min exercise (charge values) [2, 6]: −13.3 μC/g
pKa 2 [1]: 5.4
